Key:
SIMA (Neuroblastoma) [1] = assay: Bliss excess, mean over the matrix (fraction); higher = more synergy
In short: (§1)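 Bliss excess equals the observed combination effect minus the expected value EA + EB − EA·EB, where EA and EB are the effects of each agent alone. Combination Emax is the second-highest inhibition within the matrix. Inhibition was scaled from CellTiter-Glo 2.0 luminescence, with 0 set by vehicle wells and 1 by blank wells, after 72 hours of two-drug dosing of cells plated in 1536-well plates.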

[2] = tested on: RPMI-6666 (Non-Cancerous); assay: combination Emax (second highest fraction inhibited in the dose matrix, 72 h); higher = more inhibition; extreme values may be limits of the assay
In short: as §1

Mewo (Melanoma) = assay: as above
In short: as §1

[3] = tested on: RKO (Colorectal Carcinoma); assay: as above
In short: as §1

HMV-II (Melanoma) = assay: as above
In short: as §1

[4] = tested on: NCI-H747 (Colorectal Carcinoma); assay: as above
In short: as §1

[5] = tested on: UMC-11 (Other Solid Carcinomas); assay: as above
In short: as §1

[6] = tested on: EN (Endometrial Carcinoma); assay: as above
In short: as §1

[7] = tested on: CAPAN-1 (Pancreatic Carcinoma); assay: as above
In short: as §1

SIMA (Neuroblastoma) [8] = assay: as above
In short: as §1

Row | Structure (SMILES) | Bliss excess (SIMA (Neuroblastoma) [1]) | combination Emax [2] | combination Emax (Mewo (Melanoma)) | combination Emax [3] | combination Emax (HMV-II (Melanoma)) | combination Emax [4] | combination Emax [5] | combination Emax [6] | combination Emax [7] | combination Emax (SIMA (Neuroblastoma) [8])
1 | C=CCn1c(=O)c2cnc(Nc3ccc(N4CCN(C)CC4)cc3)nc2n1-c1cccc(C(C)(C)O)n1 [AZD1775] + C1CN(CCC1(C(=O)N[C@@H](CCO)C2=CC=C(C=C2)Cl)N)C3=NC=NC4=C3C=CN4 [Capivasertib] (first compound max 3 µM, partner max 3 µM) | -0.0416 | 0.921 | 0.589 | 0.886 | 0.592 | 0.623 | 0.696 | 0.715 | 0.674 | 0.94
2 | Cc1c2c(nn1C)CSCc1cc(n(C)n1)CSc1cc(c3ccccc3c1)OCCCc1c(C(=O)O)n(C)c3c-2c(Cl)ccc13 [AZD5991] + CN(C)CCCOc1ccc(-c2ccc3ncc4c(c3c2)n(C2CCOCC2)c(=O)n4C)cn1 [AZD0156] (first compound max 1 µM, 7x7, partner max 1 µM) | 0.0197 | 0.502 | 0.225 | 0.225 | 0.256 | 0.414 | 0.486 | 0.572 | 0.252 | 0.398
3 | CN(CCO)CC[C@H](CSc1ccccc1)Nc1ccc(S(=O)(=O)NC(=O)c2ccc(N3CCC([C@@H](O)c4ccccc4-c4ccc(Cl)cc4)CC3)cc2)cc1S(=O)(=O)C(F)(F)F [AZD4320] + C=CCn1c(=O)c2cnc(Nc3ccc(N4CCN(C)CC4)cc3)nc2n1-c1cccc(C(C)(C)O)n1 [AZD1775] (first compound max 1 µM, partner max 1 µM) | -0.0156 | 1 | 0.548 | 0.617 | 0.47 | 0.446 | 0.632 | 0.567 | 0.732 | 1
4 | Cc1c2c(nn1C)CSCc1cc(n(C)n1)CSc1cc(c3ccccc3c1)OCCCc1c(C(=O)O)n(C)c3c-2c(Cl)ccc13 [AZD5991] + Cn1cnc2c(F)c(Nc3ccc(Br)cc3Cl)c(C(=O)NOCCO)cc21 [Selumetinib] (first compound max 1 µM, 7x7, partner max 3 µM) | 0.0879 | 0.695 | 0.475 | 0.406 | 0.829 | 0.728 | 0.348 | 0.535 | 0.381 | 0.516
5 | CN(CCO)CC[C@H](CSc1ccccc1)Nc1ccc(S(=O)(=O)NC(=O)c2ccc(N3CCC([C@@H](O)c4ccccc4-c4ccc(Cl)cc4)CC3)cc2)cc1S(=O)(=O)C(F)(F)F [AZD4320] + CN(C)CCCOc1ccc(-c2ccc3ncc4c(c3c2)n(C2CCOCC2)c(=O)n4C)cn1 [AZD0156] (first compound max 1 µM, 7x7, partner max 1 µM) | -0.14 | 0.875 | 0.147 | 0.122 | 0.157 | 0.311 | 0.567 | 0.218 | 0.145 | 0.848
6 | Cc1c2c(nn1C)CSCc1cc(n(C)n1)CSc1cc(c3ccccc3c1)OCCCc1c(C(=O)O)n(C)c3c-2c(Cl)ccc13 [AZD5991] + C1CN(CCC1(C(=O)N[C@@H](CCO)C2=CC=C(C=C2)Cl)N)C3=NC=NC4=C3C=CN4 [Capivasertib] (first compound max 1 µM, 7x7, partner max 3 µM) | -0.0195 | 0.7 | 0.199 | 0.292 | 0.198 | 0.392 | 0.29 | 0.848 | 0.203 | 0.176
7 | CN(CCO)CC[C@H](CSc1ccccc1)Nc1ccc(S(=O)(=O)NC(=O)c2ccc(N3CCC([C@@H](O)c4ccccc4-c4ccc(Cl)cc4)CC3)cc2)cc1S(=O)(=O)C(F)(F)F [AZD4320] + C1CN(CCC1(C(=O)N[C@@H](CCO)C2=CC=C(C=C2)Cl)N)C3=NC=NC4=C3C=CN4 [Capivasertib] (first compound max 1 µM, 7x7, partner max 3 µM) | -0.0435 | 0.916 | 0.204 | 0.272 | 0.169 | 0.387 | 0.508 | 0.576 | 0.161 | 0.814
8 | Cc1c2c(nn1C)CSCc1cc(n(C)n1)CSc1cc(c3ccccc3c1)OCCCc1c(C(=O)O)n(C)c3c-2c(Cl)ccc13 [AZD5991] + CC1(C)CCC(CN2CCN(c3ccc(C(=O)NS(=O)(=O)c4ccc(NCC5CCOCC5)c([N+](=O)[O-])c4)c(Oc4cnc5[nH]ccc5c4)c3)CC2)=C(c2ccc(Cl)cc2)C1 [Venetoclax] (first compound max 1 µM, 7x7, partner max 1 µM) | 0.107 | 0.911 | 0.653 | 0.225 | 0.151 | 0.196 | 0.821 | 0.608 | 0.138 | 0.46
9 | CN(CCO)CC[C@H](CSc1ccccc1)Nc1ccc(S(=O)(=O)NC(=O)c2ccc(N3CCC([C@@H](O)c4ccccc4-c4ccc(Cl)cc4)CC3)cc2)cc1S(=O)(=O)C(F)(F)F [AZD4320] + Cc1cc2ncnn2cc1Nc1ncc2c(n1)n(C1CCOCC1)c(=O)n2C [AZD7648] (first compound max 1 µM, 7x7, partner max 10 µM) | 0.0256 | 0.898 | 0.194 | 0.21 | 0.18 | 0.387 | 0.712 | 0.304 | 0.161 | 0.862

Source: the supplement of paper PMC11061612
